Assay results taken from patent EP4567035A1, “NOVEL COMPOUND AS HYPOXIA-INDUCIBLE FACTOR 1(HIF-1) INHIBITOR OR VASCULAR ENDOTHELIAL GROWTH FACTOR (VEGF) INHIBITOR, AND PHARMACEUTICAL COMPOSITION COMPRISING SAME” (Nextgen Bioscience Co., Ltd., priority 2022, dated 2024).

What was measured:
VEGF = experiment: Evaluation of VEGF protein secretion level (Human VEGF ELISA) in ARPE-19 cell medium under hypoxic conditions; format: cell-based; conditions: ARPE-19 cells; pretreated 2 hours, 24 hours hypoxic conditions; secreted VEGF in medium supernatant by ELISA; concentration range reducing VEGF by 50% vs untreated control; read-out: IC50 VEGF
Summary of the method: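 Human ARPE-19 cells were pretreated 2 h with compound (0.1 nM–10 µM, in DMEM/F12 with 1% FBS), then held 24 h in hypoxia (1% O2, 5% CO2). Secreted VEGF in the supernatant was quantified by ELISA (A450). The value is the concentration range giving ≥50% VEGF reduction versus untreated control.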

HIF-1α = target: T1, HIF-1α (Homo sapiens, UniProt Q16665); experiment: Analysis of HIF-1α protein expression (Western blot) in ARPE-19 cells under mixed hypoxic condition; format: cell-based; conditions: values marked * in the table, mixed hypoxic condition (1% oxygen + CoCl2) for 24 hours, concentration range at which HIF-1α expression is reduced by 50% vs untreated control, read-out: IC50 HIF-1α, Hypoxia(24h)
T1 construct: endogenous in cells; host or cells: ARPE-19 (ATCC CRL-2302)
Summary of the method: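 ARPE-19 cells were pretreated 16 h or 2 h with compound (0.1 nM–10 µM, serum-free DMEM/F12), then held 1 h or 24 h in mixed hypoxia (1% O2 plus CoCl2). HIF-1α was quantified by Western blot against β-actin; the concentration range giving ≥50% reduction vs untreated control was reported.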

T1 sequence (Q16665 whole entry): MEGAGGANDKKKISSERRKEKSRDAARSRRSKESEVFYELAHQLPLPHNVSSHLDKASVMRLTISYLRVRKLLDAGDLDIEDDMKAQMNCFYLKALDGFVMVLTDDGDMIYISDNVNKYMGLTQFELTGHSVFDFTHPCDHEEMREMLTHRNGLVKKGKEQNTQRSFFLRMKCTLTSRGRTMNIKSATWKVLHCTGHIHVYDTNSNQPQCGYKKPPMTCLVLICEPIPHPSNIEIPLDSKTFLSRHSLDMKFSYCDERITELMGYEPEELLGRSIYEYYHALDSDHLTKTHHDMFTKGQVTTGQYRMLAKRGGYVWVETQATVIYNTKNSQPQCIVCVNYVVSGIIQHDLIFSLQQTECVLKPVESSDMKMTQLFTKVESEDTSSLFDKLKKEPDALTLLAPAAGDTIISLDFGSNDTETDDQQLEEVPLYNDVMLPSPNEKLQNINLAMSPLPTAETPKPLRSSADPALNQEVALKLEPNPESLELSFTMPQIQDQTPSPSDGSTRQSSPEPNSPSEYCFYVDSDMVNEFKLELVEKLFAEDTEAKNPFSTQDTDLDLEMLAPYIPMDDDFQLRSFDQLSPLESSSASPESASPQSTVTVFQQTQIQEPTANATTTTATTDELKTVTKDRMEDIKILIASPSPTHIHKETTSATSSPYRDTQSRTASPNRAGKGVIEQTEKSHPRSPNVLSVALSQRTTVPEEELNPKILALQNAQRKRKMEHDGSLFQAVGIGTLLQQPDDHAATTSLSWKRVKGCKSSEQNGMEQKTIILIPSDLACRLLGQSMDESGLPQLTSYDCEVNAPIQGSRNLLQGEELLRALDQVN

IC50 (VEGF) [nM] | DC50 (HIF-1α) [nM] | Compound
100 to 1000 | < 100 | Cn1ccc(Nc2cc(F)cc(CNC(=O)c3ncnc4nc(C5CCCC5)[nH]c34)c2)n1 [Example 118, 8-Cyclopentyl-N-(3-fluoro-5-((1-methyl-1H-pyrazol-3-yl)amino)benzyl)-7H-purine-6-carboxamide]
> 10000 | 100 to 1000 | O=C(NCc1cc(F)cc(Nc2cc[nH]n2)c1)c1ncnc2nc(C3CCCC3)[nH]c12 [Example 120, N-(3-((1H-pyrazol-3-yl)amino)-5-fluorobenzyl)-8-cyclopentyl-7H-purine-6-carboxamide]
> 10000 | 100 to 1000 | O=C(NCc1cc(F)cc(Nc2ccon2)c1)c1ncnc2nc(C3CCCC3)[nH]c12 [Example 121, 8-Cyclopentyl-N-(3-fluoro-5-(isoxazol-3-ylamino)benzyl)-7H-purine-6-carboxamide]
< 100 | < 100 | N#Cc1ccc(Nc2cc(F)cc(CNC(=O)c3ncnc4nc(C5CCCC5)[nH]c34)c2)cc1 [Example 122, N-(3-((4-cyanophenyl)amino)-5-fluorobenzyl)-8-cyclopentyl-7H-purine-6-carboxamide]
< 100 | < 100 | NC(=O)c1ccc(Nc2cc(F)cc(CNC(=O)c3ncnc4nc(C5CCCC5)[nH]c34)c2)cc1 [Example 126, N-(3-((4-carbamoylphenyl)amino)-5-fluorobenzyl)-8-cyclopentyl-7H-purine-6-carboxamide]
100 to 1000 | < 100 | O=C(NCc1cc(F)cc(Nc2ccsc2)c1)c1ncnc2nc(C3CCCC3)[nH]c12 [Example 130, 8-Cyclopentyl-N-(3-fluoro-5-(thiophen-3-ylamino)benzyl)-7H-purine-6-carboxamide]
> 10000 | 100 to 1000 | O=C(O)c1ccc(Nc2cc(F)cc(CNC(=O)c3ncnc4nc(C5CCCC5)[nH]c34)c2)cc1 [Example 133, 4-((3-((8-Cyclopentyl-7H-purine-6-carboxamido)methyl)-5-fluorophenyl)amino)benzoic acid]
> 10000 | 100 to 1000 | O=C(NCc1cc(F)cc(Nc2nnco2)c1)c1ncnc2nc(C3CCCC3)[nH]c12 [Example 134, N-(3-((1,3,4-oxadiazol-2-yl)amino)-5-fluorobenzyl)-8-cyclopentyl-7H-purine-6-carboxamide]
> 10000 | 100 to 1000 | O=C(NCc1cc(F)cc(NC2CCCC2)c1)c1ncnc2nc(C3CCCC3)[nH]c12 [Example 135, 8-Cyclopentyl-N-(3-(cyclopentylamino)-5-fluorobenzyl)-7H-purine-6-carboxamide]
> 10000 | 100 to 1000 | O=C(NCc1cc(F)cc(Nc2nncs2)c1)c1ncnc2nc(C3CCCC3)[nH]c12 [Example 136, N-(3-((1,3,4-thiadiazol-2-yl)amino)-5-fluorobenzyl)-8-cyclopentyl-7H-purine-6-carboxamide]

More lines, now with the values behind:

Compound | IC50 (VEGF) [nM] | DC50 (HIF-1α) [nM]
O=C(NCc1cc(F)cc(-c2cnn(-c3ccc(F)cc3)c2)c1)c1ncnc2nc(C34CCC(C3)C4)[nH]c12 [Example 115, 8-(Bicyclo[2.1.1]hexan-1-yl)-N-(3-fluoro-5-(1-(4-fluorophenyl)-1H-pyrazol-4-yl)benzyl)-7H-purine-6-carboxamide] | 100 to 1000 | 100 to 1000
O=C(NCc1cc(F)cc(-n2cc(-c3ccc(F)cc3)nn2)c1)c1ncnc2nc(C3CCCC3)[nH]c12 [Example 116, 8-Cyclopentyl-N-(3-fluoro-5-(4-(4-fluorophenyl)-1H-1,2,3-triazol-1-yl)benzyl)-7H-purine-6-carboxamide] | > 10000 | 100 to 1000
O=C(NCc1cc(F)cc(-c2cnn(-c3ccsc3)c2)c1)c1ncnc2nc(C3CCCC3)[nH]c12 [Example 117, 8-Cyclopentyl-N-(3-fluoro-5-(1-(thiophen-3-yl)-1H-pyrazol-4-yl)benzyl)-7H-purine-6-carboxamide] | 100 to 1000 | < 100
O=C(NCc1cc(F)cc(-c2cn(-c3ccc(F)cc3)nn2)c1)c1ncnc2nc(C3CCCC3)[nH]c12 [Example 119, 8-Cyclopentyl-N-(3-fluoro-5-(1-(4-fluorophenyl)-1H-1,2,3-triazol-4-yl)benzyl)-7H-purine-6-carboxamide] | > 10000 | 100 to 1000
CC(=O)c1ccc(-n2cc(-c3cc(F)cc(CNC(=O)c4ncnc5nc(C6CCCC6)[nH]c45)c3)cn2)cc1 [Example 123, N-(3-(1-(4-acetylphenyl)-1H-pyrazol-4-yl)-5-fluorobenzyl)-8-cyclopentyl-7H-purine-6-carboxamide] | < 100 | < 100
O=C(NCc1cc(F)cc(-c2cnn(-c3ccoc3)c2)c1)c1ncnc2nc(C3CCCC3)[nH]c12 [Example 124, 8-Cyclopentyl-N-(3-fluoro-5-(1-(furan-3-yl)-1H-pyrazol-4-yl)benzyl)-7H-purine-6-carboxamide] | 100 to 1000 | < 100
O=C(NCc1cc(F)cc(-c2cnn(-c3cnn(Cc4ccccc4)c3)c2)c1)c1ncnc2nc(C3CCCC3)[nH]c12 [Example 125, N-(3-(1'-benzyl-1'H-[1,4'-bipyrazol]-4-yl)-5-fluorobenzyl)-8-cyclopentyl-7H-purine-6-carboxamide] | 100 to 1000 | < 100
CCOC(=O)c1ccc(Nc2cc(F)cc(CNC(=O)c3ncnc4nc(C5CCCC5)[nH]c34)c2)cc1 [Example 127, Ethyl 4-((3-((8-cyclopentyl-7H-purine-6-carboxamido)methyl)-5-fluorophenyl)amino)benzoate] | > 10000 | 100 to 1000
Cn1cc(-n2cc(-c3cc(F)cc(CNC(=O)c4ncnc5nc(C6CCCC6)[nH]c45)c3)cn2)cn1 [Example 128, 8-Cyclopentyl-N-(3-fluoro-5-(1'-methyl-1'H-[1,4'-bipyrazol]-4-yl)benzyl)-7H-purine-6-carboxamide] | < 100 | < 100
CN1CCC(Nc2cc(F)cc(CNC(=O)c3ncnc4nc(C5CCCC5)[nH]c34)c2)CC1 [Example 129, 8-Cyclopentyl-N-(3-fluoro-5-((1-methylpiperidin-4-yl)amino)benzyl)-7H-purine-6-carboxamide] | > 10000 | 1000 to 10000
O=C(NCc1cc(F)cc(N2CCN(c3ccc(F)cc3)CC2)c1)c1ncnc2nc(C3CCCC3)[nH]c12 [Example 131, 8-Cyclopentyl-N-(3-fluoro-5-(4-(4-fluorophenyl)piperazin-1-yl)benzyl)-7H-purine-6-carboxamide] | > 10000 | 1000 to 10000
O=C(NCc1cc(F)cc(-c2nnc(-c3ccc(F)cc3)o2)c1)c1ncnc2nc(C3CCCC3)[nH]c12 [Example 132, 8-Cyclopentyl-N-(3-fluoro-5-(5-(4-fluorophenyl)-1,3,4-oxadiazol-2-yl)benzyl)-7H-purine-6-carboxamide] | > 10000 | 1000 to 10000
O=C(NCc1cc(F)cc(N2CCCN(c3ccc(F)cc3)CC2)c1)c1ncnc2nc(C3CCCC3)[nH]c12 [Example 137, 8-Cyclopentyl-N-(3-fluoro-5-(4-(4-fluorophenyl)-1,4-diazepan-1-yl)benzyl)-7H-purine-6-carboxamide] | > 10000 | 100 to 1000
O=C(NCc1cc(F)cc(-c2cnn(C3CCCC3)c2)c1)c1ncnc2nc(C3CCCC3)[nH]c12 [Example 138, 8-Cyclopentyl-N-(3-(1-cyclopentyl-1H-pyrazol-4-yl)-5-fluorobenzyl)-7H-purine-6-carboxamide] | 100 to 1000 | < 100
